These results are taken from publication PMC6158189, “A pharmacological probe identifies cystathionine β-synthase as a new negative regulator for ferroptosis” (Cell Death & Disease, 2018).

Several values for one entry are separate records, joined by “and”; a condition that tells them apart may be missing. Equal values may be shown once.

In one assay the test system is HepG2 cells. In words: intracellular ROS (DCFH-DA, flow cytometry). It counts as cell-based, human. The note with it: HepG2, 12 h. As to the method:
Fig. 5 In situ reduction of CBS activity and H2S in mitochondria by CH004 is coupled with an increase of intracellular ROS. a, b CH004 dose-dependently elevates ROS levels in both HepG2 (a) and HEK293T cells (b). The cells were treated with CH004 for 12 h or with 1 mM H2O2 for 30 min before the staining with DCFH-DA (Molecular Probes) and the analyzsis by flow cytometry (“Materials and Methods” section). Means ± SDS (n = 3). […] HepG2 cells were incubated with indicated inhibitors for 8 h before staining with the mitochondria tracker Mito-tracker® Green (Invitrogen) and the AzMC probe. Cyan represents the colocalization of H2S (blue) and the mitochondria tracker (green). Bars: 50 μm. d hCBS co-localizes with the mitochondria in HepG2 and HEK293T cells. HepG2 and HEK293T cells were stained with an anti-CBS antibody (3E1, 1:200; Abnova) for hCBS (red), Mito-tracker® Green for the mitochondria (green) and DAPI for the nucleus (blue). […]
To investigate the intracellular ROS levels, HEK293T or HepG2 cells were seeded in 6-well plates for one day, then incubated with the indicated inhibitors and 1 mM H2O2 for 12 h and 30 min, respectively. After trypsinization and one wash in PBS, the collected cells were resuspended in PBS and incubated with 100 μM probe DCFH-DA for 30 min at 37 °C before being analyzed using an LSR Fortessa flow cytometer.

The next assay addresses T1, hCBS-FL (Homo sapiens, UniProt P35520).
T1 sequence (P35520 1-551): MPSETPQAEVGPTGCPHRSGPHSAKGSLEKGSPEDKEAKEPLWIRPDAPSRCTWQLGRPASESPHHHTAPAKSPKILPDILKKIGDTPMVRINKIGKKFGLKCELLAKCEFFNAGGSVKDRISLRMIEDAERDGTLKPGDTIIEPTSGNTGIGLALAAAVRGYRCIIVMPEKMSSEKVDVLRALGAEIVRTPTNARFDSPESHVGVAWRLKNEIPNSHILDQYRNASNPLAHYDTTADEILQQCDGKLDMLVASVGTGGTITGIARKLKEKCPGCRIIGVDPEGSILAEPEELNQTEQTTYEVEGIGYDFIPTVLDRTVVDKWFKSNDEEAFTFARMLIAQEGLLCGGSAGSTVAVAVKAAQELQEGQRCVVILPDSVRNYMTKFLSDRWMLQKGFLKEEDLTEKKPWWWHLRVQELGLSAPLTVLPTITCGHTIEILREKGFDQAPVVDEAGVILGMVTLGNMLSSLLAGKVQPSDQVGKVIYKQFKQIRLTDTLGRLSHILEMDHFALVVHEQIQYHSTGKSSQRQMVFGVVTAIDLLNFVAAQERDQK
Description: CBS enzyme assay, H2S quantified by methylene blue method. It counts as biochemical. The arrangement: human CBS or hCSE full-length (CBS-FL or CSE) was subcloned into pGEX-KG, pcDNA3 or pCDH vector; GST (N); made in house; host or cells: E. coli BL21. The note with it: 150 nM hCBS-FL, 200 μM SAM, 4 mM L-Cys, 4 mM D,L-Hcys, Tris-HCl pH 8.6, 80 min. The protocol:
Fig. 1 CH004 inhibits the activity of hCBS in the in vitro purified enzyme assays under different assay conditions. a A scheme for the cascade enzymatic reactions catalyzed by CBS or CSE. Cth, cystathionine. b, c Inhibitory effects of CH004 on the activity of hCBS-413 (b) or hCSE (c). The enzyme activities were monitored for various concentrations of CH004 under the standard conditions (50 mM Tris-HCl, pH 8.6; “Materials and Methods” section). The result is shown as percentages of the control (DMSO, 100%). The data are shown as means ± SDS (n = 3). d The dose-dependent inhibition of CH004 on the hCBS-413 activity was measured by the tandem-well-based assay under the standard conditions except using 50 mM Hepes buffer (pH 7.4) instead of 50 mM Tris-HCl (pH 8.6). Means ± SDs (n = 3). e The dose-dependent inhibition of CH004 on the CBS activity measured by methylene blue method. […] After 80 min, the assay was stopped by added 10 μL 10% ZnAC and the generated H2S was quantified by N,N-dimethyl-p-phenylenediamine to give an absorbance at 670 nm (for details, see Materials and Methods section; ref. [53]). […]
^3The IC50 were determined for hCBS-FL by Methyl Blue method (ref. 1).

Broadly, the IC50 is the concentration that gives 50% inhibition. Lower therefore signals greater potency in that assay. Turning to `Cn1nc(Cc2ccccc2)nc2c(=O)n(C)c(=O)nc1-2` [CH004, 3-benzyl-1,6-dimethylpyrimido[5,4-e][1,2,4]triazine-5,7(1H,6H)-dione], the “maximum increase of cellular ROS” value in the assay on HepG2 cells is ~ 2 fold. The IC50 on hCBS-FL is 1710 nM and 1700 nM.
